Consider six compounds from patent publication US20090274642A1, “Hair Care Compositions for Preventing Oxidative Damage to Hair, Methods of Use, and Methods of Marketing Such Compositions” (priority 2008, published 2009).

In one assay the test system is Malassezia. In words: Level of Malassezia after anti-dandruff actives delivered from shampoo. Particulars: 1% active in shampoo formulation, after two weeks of usage; FIG. 5. Type of assay: in vivo. An excerpt:
From left to right, the bars on the graph represent: 1% SeS2, 1% ZPT, 1% Climbazole, None (Control), 1% Platelet ZPT, 1SeS2, and 1% Ketoconazole.

Assay [1] can be described thus: Amplex assay, 10 μM H2O2 manually added to AMP dye. Type of assay: biochemical. Particulars: 10 μM H2O2 added to AMP dye; pH=7.4; FIG. 3.
Protocol: FIG. 3 is a graph showing the amplex fluorescence signal produced when 10 μM H2O2 is manually added to AMP dye.
The test system of the next assay is Malassezia cells. Briefly: Amplex ultra red (AMP dye) fluorescence, Malassezia cells on unsaturated lipophilic substrate. Type of assay: cell-based. Particulars: pH 5.5; ethoxyquin added to the mixture; FIG. 2.

As for `CC(C)(C)C(=O)C(Oc1ccc(Cl)cc1)n1ccnc1` (stereo not shown) [Climbazole, climbazole], the “level of Malassezia” value in the assay with Malassezia was “decreased level”.

Regarding `CC(=O)N1CCN(c2ccc(OCC3COC(Cn4ccnc4)(c4ccc(Cl)cc4Cl)O3)cc2)CC1` (stereo not shown) [Ketoconazole, ketoconazole], the “level of Malassezia” value in the assay with Malassezia is “decreased level”.

As for `[O-][n+]1ccccc1[S-].[O-][n+]1ccccc1[S-].[Zn+2]` [Platelet ZPT], the “level of Malassezia” value in the assay with Malassezia is reported as “decreased level”.

As for `S=[Se]=S` [SeS2, selenium sulfide], the “level of Malassezia” value in the assay with Malassezia is reported as “decreased level”.

Take `[O-]n1ccccc1=S.[O-]n1ccccc1=S.[Zn+2]` [ZPT, zinc salt of 1-hydroxy-2-pyridinethione]: the “level of Malassezia” value in the assay with Malassezia is reported as “decreased level”.

With `CCOc1ccc2c(c1)C(C)=CC(C)(C)N2` [ethoxyquin], in assay [1], the “amplex fluorescence signal produced by H2O2” value is given as “quenched”. The “fluorescence signal due to the action of Malassezia on substrate” value in the assay with Malassezia cells is “quenched”.
